We go through 36 compounds from ChEMBL document CHEMBL1127707, “The use of the GRID program in the 3-D QSAR analysis of a series of calcium-channel agonists” (J Med Chem, 1994).

The data set in a line: CMR value (relative to BAY K 8644). The class given is ADME.

Each structure is given as a SMILES string.

On to `COC(=O)c1c(C)[nH]c(C)c1C(=O)c1ccccc1[S+]([O-])c1ccccc1` (stereo unspecified), for which the CMR came out at 10.44.

`COC(=O)c1c(C)[nH]c(C)c1C(=O)c1ccccc1[S+]([O-])Cc1ccccc1` (stereo unspecified) registered a CMR of 10.9.

`COC(=O)c1c(C)[nH]c(C)c1C(=O)c1ccccc1Oc1ccccc1` showed a CMR of 9.75.

In turn, `COC(=O)c1c(C)[nH]c(C)c1C(=O)c1ccccc1Cc1ccc(N)cc1` returned a CMR of 10.43.

Compound `COC(=O)c1c(C)[nH]c(C)c1C(=O)c1ccccc1Nc1ccccn1` came in with a CMR of 9.75.

In turn, `COC(=O)c1c(C)[nH]c(C)c1C(=O)c1ccccc1Oc1ccc([N+](=O)[O-])cc1` returned a CMR of 10.47.

`COC(=O)c1c(C)[nH]c(C)c1C(=O)c1ccccc1Cc1ccccc1[N+](=O)[O-]` returned a CMR of 10.78.

`COC(=O)c1c(C)[nH]c(C)c1C(=O)c1ccccc1OCc1ccccc1` displayed a CMR of 10.21.

In the case of `COC(=O)c1c(C)[nH]c(C)c1C(=O)c1ccccc1SCc1ccccc1`, the CMR worked out at 10.87.

`COC(=O)c1c(C)[nH]c(C)c1C(=O)c1ccc(C)cc1C` gave a CMR of 8.01.

The compound `COC(=O)c1c(C)[nH]c(C)c1C(=O)c1ccc(F)cc1Cc1ccc(F)cc1` yielded a CMR of 10.09.

`COC(=O)c1c(C)[nH]c(C)c1C(=O)c1ccccc1NC1CCCCC1` showed a CMR of 10.06.

As for `COC(=O)c1c(C)[nH]c(C)c1C(=O)c1ccccc1Cc1ccc(F)cc1`, the CMR was 10.08.

For `COC(=O)c1c(C)[nH]c(C)c1C(=O)c1ccc(F)cc1Br`, the CMR was 7.877.

`COC(=O)c1c(C)[nH]c(C)c1C(=O)c1ccccc1OS(=O)(=O)c1ccc(C)cc1` returned a CMR of 10.62.

As for `COC(=O)c1c(C)[nH]c(C)c1C(=O)c1ccccc1Sc1ccc([N+](=O)[O-])cc1`, the CMR is listed as 11.13.

Regarding `COC(=O)c1c(C)[nH]c(C)c1C(=O)c1ccccc1Nc1ccccc1`, the CMR was determined as 9.96.

Compound `COC(=O)c1c(C)[nH]c(C)c1C(=O)c1ccc([N+](=O)[O-])cc1Cl` yielded a CMR of 8.3.

The compound `COC(=O)c1c(C)[nH]c(C)c1C(=O)c1ccccc1Cc1ccc([N+](=O)[O-])cc1` returned a CMR of 10.79.

Turning to `COC(=O)c1c(C)[nH]c(C)c1C(=O)c1ccccc1C`, the CMR was determined as 7.58.

`COC(=O)c1c(C)[nH]c(C)c1C(=O)c1ccccc1F` registered a CMR of 7.1.

`COC(=O)c1c(C)[nH]c(C)c1C(=O)c1ccccc1I`: the CMR came out at 8.39.

`COC(=O)c1c(C)[nH]c(C)c1C(=O)c1ccccc1-c1ccccc1` returned a CMR of 9.6.

Regarding `COC(=O)c1c(C)[nH]c(C)c1C(=O)c1ccccc1CCc1ccccc1`, the CMR is listed as 10.52.

`COC(=O)c1c(C)[nH]c(C)c1C(=O)c1ccccc1S(=O)(=O)Cc1ccccc1` returned a CMR of 10.93.

With `COC(=O)c1c(C)[nH]c(C)c1C(=O)c1ccccc1C(=O)Oc1ccccc1O`, the CMR was determined as 10.4.

For `COC(=O)c1c(C)[nH]c(C)c1C(=O)c1ccccc1Sc1ccccc1`, the CMR is reported as 10.4.

In the case of `COC(=O)c1c(C)[nH]c(C)c1C(=O)c1ccccc1CC1CCCCC1`, the CMR was found to be 10.15.

With `COC(=O)c1c(C)[nH]c(C)c1C(=O)c1ccc(F)cc1Cc1ccccc1`, the CMR was 10.08.

In the case of `COC(=O)c1c(C)[nH]c(C)c1C(=O)c1ccc(Cl)cc1Cl`, the CMR worked out at 8.07.

`COC(=O)c1c(C)[nH]c(C)c1C(=O)c1ccccc1` gave a CMR of 7.08.

Turning to `COC(=O)c1c(C)[nH]c(C)c1C(=O)c1ccccc1OC`, the CMR was 7.7.

`COC(=O)c1c(C)[nH]c(C)c1C(=O)c1ccccc1Cl` showed a CMR of 7.58.

`COC(=O)c1c(C)[nH]c(C)c1C(=O)c1ccccc1C(F)(F)F` displayed a CMR of 7.6.

Take `COC(=O)c1c(C)[nH]c(C)c1C(=O)c1ccccc1Cc1ccccc1`: the CMR turned out to be 10.06.

For `COC(=O)c1c(C)[nH]c(C)c1C(=O)c1ccccc1Br`, the CMR was determined as 7.86.
